Laboratory results from patent US20160310454A1, “LIVER X RECEPTOR AGONISTS IN THE TREATMENT OF EMPHYSEMA” (priority 2013, published 2016).
“Also recorded” adds a separate entry of the source.

Columns and labels:
[1] = tested on: murine disease models of atherosclerosis; conditions: mouse, in vivo; cited from earlier work
[2] = tested on: mouse macrophages (bone marrow derived, ABCA1 fl/fl WT) treated with 5% CSE; assay: Mouse macrophages treated with 5% CSE with or without LXR agonist (RT-PCR, Western blot, zymography); assay type: cell-based
Protocol: To prepare cigarette (CSE), the smoke from one cigarette (1.1 mg of nicotine, 15 mg of tar) was passed through 25 mls of phosphate buffered saline (PBS) (Mercer et al., 2004). The pH of the extracted solution was adjusted to 7.4 and then filtered (Mercer et al., 2004). CSE was added to the media at concentrations up to 5% (vol/vol) (Mercer et al., 2004).
In these experiments both mouse peritoneal and mouse bone marrow derived macrophages (BMdM) were utilized. Mouse peritoneal macrophages were isolated from peritoneal cavities of 3% thioglycolate injected mice on the 5th day from injection. To compare expression of genes in vitro and in vivo peritoneal macrophages were isolated from mice exposed to room air and cigarette smoke. For in vitro analysis cells were seeded on culture plates for 24 h and then treated with CSE. For in vivo analysis cells were collected from peritoneal cavity and mRNA was directly isolated. Mouse BMdMs were obtained from the following mice: ABCA1 fl/fl in a C57/BL6 background. Briefly, mice were first sacrificed by CO2 asphyxiation followed by cervical dislocation. After sacrificing the mouse the legs were amputated and the excess muscle tissue was removed so as to completely expose the femur and tibia, which were cleaned carefully. These samples were left in sterile PBS for the duration of the procedure. The cavity bones were then flushed with 10 ml of PBS using 26G needle. The obtained cells were then counted (usually 100-150 million cells per mouse) and centrifuged for 5 min at 2600 rpm. Hematopoietic cells can be separated by plastic adhesion; therefore the cells were incubated in petri dishes containing DMEM culture media and supplemented with 10% FBS and 1% antibiotics). Non-adherent progenitor cells were then collected after 2 hours of incubation in culture media and then seeded at a concentration of 4 million cells/ml in fresh culture media, supplemented with L-cell conditioned media containing macrophage colony stimulating factor (M-CSF) at a concentration of 20%. Approximately after 7-10 days of plating the cells become fully differentiated into macrophages and were ready for subsequent experiments. After treatment the culture supernatants, proteins, and total RNA were collected for analysis. […]
Total RNA was extracted from specimens of lung tissue 0.3 cm^3 in size with the use of the RNeasy kit (Qiagen, Germantown, Md.) (Goldklang et al., 2012). The RNA was then further processed to obtain cDNA, which was used for Real Time (RT) PCR analysis. TaqMan gene expression assays (Applied Biosystems, Carlsbad, Calif.) were performed to assess gene-transcript levels with the use of an ABI Prism 7900HT Sequence Detection System (Applera, Foster City, Calif.) (Goldklang et al., 2012). The following primers were used to check the respective gene expression: ABCA1 (Hs01059118_m1), ABCG1 (Hs00245154_m1), MMP-9 (Mm00442991_m1), IL-1β (Mm00434227_g1), TNF-α (Mm00443260_g1) and GAPDH (4352932E) from TaqMan Gene Expression Assays, Applied Biosystems, CA. β-actin was used as a control since it is a housekeeping gene.
The lungs of mice (-10 mg) were homogenized in 1 ml of Radioimmunoprecipitation assay (RIPA) buffer, and centrifuged at 14,000 g for 10 min. The protein concentration of each sample was measured using a Bradford reagent. The required amount of each sample was then used for western blot analysis, so that the concentration was equal for all samples. Proteins were first separated on the basis of molecular weight via sodium dodecyl sulphate polyacrylamide gel electrophoresis (SDS-PAGE). The same gel was then transferred onto a nitro cellulose membrane with the help of electric current (or electroblotting) that transfers the protein from polyacrylamide gel to the membrane. This membrane was then incubated in the solution containing primary antibodies, specific for the proteins of interest, ABCA1 and ABCG1, followed by the use of a secondary antibody that allowed the detection of protein by chemiluminescent. […]

[3] = In vivo bioavailability of LXR agonist in lung and serum (LC/MS/MS); set-up: species or system mouse
Protocol: FIG. 23. In vivo bioavailability of LXR agonist (T0901317) in the lung and serum after intraperitoneal (IP) and custom made diet administration. (A.) T0901317 LC/MS/MS Chromatogram showing no difference among standard and samples in the peak shape and retension time. (B.) Table representing levels of the administered drug in serum and lungs of AKR/J mice by IP (2 and 24 hours post drug administration) and in custom made diet (Research Diets Inc, 0.015% w/w). The result was normalized by using serum volume and lung tissue weight. No T0901317 was detected in control serum and lung.

[4] = tested on: macrophage ABCA1-deficient mice exposed to cigarette smoke for 10 days; assay: Acute 10 day cigarette smoke exposure of macrophage ABCA1-deficient mice with treatment; assay type: in vivo, mouse; conditions: 25 mg/kg IP, 10 days smoke exposure
Protocol: In order to determine if the mechanism identified in vitro contributed to changes in smoke induced lung inflammation in vivo, smoke studies were performed in vivo. […] Through investigation of the smoke-induced regulation of ABCA1, the present disclosure identifies unique pathways that can be targeted to prevent smoking-related emphysema and the progression of lung destruction.

In the case of O=S(=O)(c1ccccc1)N(CC(F)(F)F)c1ccc(C(O)(C(F)(F)F)C(F)(F)F)cc1 [T0901317, N-(2,2,2-trifluoroethyl)-N-[4-[2,2,2-trifluoro-1-hydroxy-1-(trifluoromethyl)ethyl]phenyl]-benzenesulfonamide], the “cholesterol level in serum and liver” value [1] is given as “lowers”, the development of atherosclerosis [1] is given as “inhibits” and the “Expression of ABCA1 and ABCG1 (mRNA and protein)” value ([2]; 5% CSE, LXR agonist 3 μM) is given as “maintained at baseline levels”. The “cigarette smoke induced mRNA expression of TLR4/Myd88” value ([2]; 5% CSE, LXR agonist 3 μM) was “inhibited”, the “cigarette smoke induced phosphorylation of JNK and ERK” value ([2]; 5% CSE, LXR agonist 3 μM, Western blot) was “inhibited” and the “Expression of ABCA1 and ABCG1 (mRNA and protein)” value ([2]; 5% CSE, LXR agonist 3 μM, listed as LXR agonist) was “re-established”. The “CSE induced upregulation of IL-1β and TNFα and downregulation of IL-10 (mRNA)” value ([2]; ABCA1 WT macrophages, 5% CSE, LXR agonist 3 μM) was “reversed back to baseline”, the “mRNA and activity of MMP-9” value ([2]; ABCA1 WT macrophages, 5% CSE, LXR agonist 3 μM, gelatin zymography) was “blocked; also recorded: reduced” and the “cigarette smoke-induced pro-inflammatory cytokines and MMP expression and activity” value ([2]; mouse macrophages treated with CSE) was “blocked”. For the same compound, the “MMP-9 activity (zymography) and expression, MMP-13 expression and TNFα expression” value ([2]; smoke-induced, macrophages) was “decrease”, the “drug detected in the lungs” value ([3]; after IP administration, acute 10 day model) was “detected” and the “drug detected in the lungs” value ([3]; chronic 5 months model (diet 0.015% w/w), text prints after IP administration) was “detected”. The “pulmonary inflammation (total cell counts in BAL)” value [4] was “did not resolve”.
